Test results as given in patent US20210106566A1, “PHARMACEUTICAL COMPOSITION FOR TREATING AND/OR PREVENTING PERIPHERAL NEUROPATHY OR SPINAL CORD INJURY” (NATIONAL UNIVERSITY CORPORATION NAGOYA UNIVERSITY, priority 2015, published 2021).

System: Bdnf, Ngf, Ntf4, Ntrk1, Ntrk2, Map2, Mapt, and Gap43
Test: Severely crushed spinal cord model mice: mRNA in spinal cord segments
Format: in vivo, mouse
Conditions: spinal cord segment distal to the damaged area, 28 days after surgery, versus control group
Source text: Severely crushed spinal cord model mice were produced according to the “Method of producing severely crushed spinal cord model mice” as described in Example 8. Spinal cords were isolated from four mice in the zonisamide administration group and four mice in the control group 28 days after surgery and the segment of the damaged area with a length of 5 mm and the segment with a length of 5 mm distal to the damaged area were collected (FIG. 16). Total RNA was isolated using Trizol (Thermo Fisher Scientific) from each spinal cord segment with a length of 5 mm. Single-stranded cDNA was synthesized using ReverTra Ace (Toyobo). The mRNA expression levels of neurotrophic factors, Bdnf, Ngf, Ntf4, Ntrk1, Ntrk2, Map2, Mapt, and Gap43 were quantified using LightCycler 480 Real-Time PCR (Roche) and SYBR Green (Takara) (FIGS. 17, 18, 19, 20, 21, 22, 23, and 24). The mRNA levels were normalized with the expression level of GAPDH.

**Q.** `NS(=O)(=O)Cc1noc2ccccc12` [Zonisamide, 3-sulfamoylmethyl-1,2-benzisoxazole] was tested. Which “expression level of MAP2 gene” value did it give?
**A.** Its value is “significantly increased”.

**Q.** What about the “expression level of NGF” value of the same compound?
**A.** Its value is “seemed to be increased”.

**Q.** What about the “expression level of Tau gene” value of the same compound?
**A.** Its value is “significantly increased”.
